According to US6469058B1 (priority 1998, dated 2002):
Several values for one entry are separate records, joined by “and”; a condition that tells them apart may be missing. Equal values may be shown once. Read-outs that look alike come from different tables or passages of the source.

What was measured:
[1] = Phase 1 dose-escalation study of CI-994 in solid tumor patients (MTD, pharmacokinetics, food effect)
[2] = Route of elimination, radiolabeled drug in urine, rats; type: in vivo; details: within 24 hours
Protocol: (§1) Mass balance/route of elimination studies have not been conducted in humans. Animal studies indicate that the principal route of elimination is via renal excretion, with 80% and 62% of radiolabeled drug appearing in the urine of monkeys and rats, respectively, within 24 hours.

[3] = Phase 1 study of CI-994 in relapsed acute leukemia or other hematologic malignancy; type: in vivo
Protocol: An additional Phase 1 study was conducted in patients with relapsed acute leukemia or other hematologic malignancy using a once daily high-dose 5-day dosing schedule. The MTD was 135 mg/m^2/day. […] Other adverse events included nausea, vomiting, hypotension resulting from dehydration, hypocalcemia, headache, and in one patient each, acute pancreatitis, a pyramidal syndrome characterized by hyperreflexia and bilateral Babinski reflexes, and sepsis. Hematologic toxicities cannot be assessed in this patient population. Two patients with AML developed tumor lysis syndrome, resulting in one death. Transient decreases in peripheral white blood cell counts were noted.

[4] = system: LC-12 squamous cell lung carcinoma tumor; details: for day on which significant tumor growth commenced (FIG. 1) / tumor growth substantially inhibited for (FIG. 2): controls Day 10
clinical = details: human, in vivo, po
[5] = Route of elimination, radiolabeled drug in urine, monkeys; type: in vivo; details: within 24 hours
Protocol: as §1

[6] = human, in vivo
[7] = CI-994 7.5 mg/kg/day alone, days 3-7, 10-14, 17-21
[8] = CI-994 7.5 mg/kg/day alone, days 17-21, 24-28, 31-35
[9] = CI-994 15 mg/kg/day alone, days 3-7, 10-14, 17-21
[10] = CI-994 15 mg/kg/day alone, days 17-21, 24-28, 31-35
[11] = CI-994 30 mg/kg/day alone, days 3-7, 10-14, 17-21
[12] = CI-994 30 mg/kg/day alone, days 17-21, 24-28, 31-35
[13] = CI-994 60 mg/kg/day alone, days 3-7, 10-14, 17-21
[14] = CI-994 60 mg/kg/day alone, days 17-21, 24-28, 31-35
[15] = CI-994 7.5 mg/kg/day alone, days 11-15, 18-22, 25-29
[16] = CI-994 15 mg/kg/day alone, days 11-15, 18-22, 25-29
[17] = CI-994 30 mg/kg/day alone, days 11-15, 18-22, 25-29
[18] = CI-994 60 mg/kg/day alone, days 11-15, 18-22, 25-29
[19] = Table 2 study, CI-994 7.5 mg/kg/day alone, days 11-15, 18-22, 25-29
[20] = Table 2 study, CI-994 15 mg/kg/day alone, days 11-15, 18-22, 25-29
[21] = Table 2 study, CI-994 30 mg/kg/day alone, days 11-15, 18-22, 25-29
[22] = Table 2 study, CI-994 60 mg/kg/day alone, days 11-15, 18-22, 25-29
[23] = Cisplatin 1 mg/kg/day alone, days 11-15 (first line, r11)
[24] = Cisplatin 1 mg/kg/day alone, days 11-15 (second line, r12)
[25] = Gemcitabine 80 mg/kg/day alone, days 11, 14, 17, 20
[26] = Gemcitabine 160 mg/kg/day alone, days 11, 14, 17, 20
[27] = Table 3 study, Xeloda 500 mg/kg/day alone, days 3-7, 10-14
[28] = Table 3 study, Xeloda 750 mg/kg/day alone, days 3-7, 10-14
[29] = Table 4 study, Xeloda 500 mg/kg/day alone, days 3-7, 10-14
[30] = Table 4 study, Xeloda 750 mg/kg/day alone, days 3-7, 10-14

## CC(=O)Nc1ccc(C(=O)Nc2ccccc2N)cc1 [CI-994, 4-acetylamino-N-(2′-aminophenyl)-benzamide]
Phase 2, 8 mg/m^2 orally daily
  Clinical benefit: Clinical benefit has been reported in patients with renal cell cancer
  Objective responses: Objective responses have been seen in patients with nonsmall cell lung cancer
In vivo, po
  dose-limiting toxicity: Thrombocytopenia
[1]; 8 weeks of continuous daily therapy followed by a 2-week drug holiday
  MTD: 8 mg/m^2/day
[1]; dose-escalation study
  Responses: one partial response in a heavily pretreated patient with NSCLC and a minor response in one patient each with renal cell cancer and NSCLC
[1]; duration of treatment 14 consecutive days
  maximum tolerated dose (MTD): 15 mg/m^2/day
[2]
  radiolabeled drug appearing in the urine: 62%
C26 colon tumor; [7]
  % Tumor free: 0/10
  Net Log10 Kill: −2.2
  T − C: 1.6 days
  Toxic Deaths: 0/10
C26 colon tumor; [8]
  % Tumor free: 0/10
  Net Log10 Kill: −1.3
  T − C: 3.1 days
  Toxic Deaths: 0/10
C26 colon tumor; [9]
  % Tumor free: 0/9
  Net Log10 Kill: −2.3
  T − C: 1.0 days
  Toxic Deaths: 0/9
C26 colon tumor; [10]
  % Tumor free: 0/10
  Net Log10 Kill: −1.0
  T − C: 6.7 days
  Toxic Deaths: 0/10
C26 colon tumor; [11]
  % Tumor free: 0/9
  Net Log10 Kill: −1.8
  T − C: 4.6 days
  Toxic Deaths: 0/9
C26 colon tumor; [12]
  % Tumor free: 0/10
  Net Log10 Kill: −0.8
  T − C: 8.4 days
  Toxic Deaths: 1/10
C26 colon tumor; [13]
  % Tumor free: 0/9
  Net Log10 Kill: −1.8
  T − C: 4.8 days
  Toxic Deaths: 0/9
C26 colon tumor; [14]
  % Tumor free: 0/10
  Net Log10 Kill: −0.7
  T − C: 10.1 days
  Toxic Deaths: 0/10
[3]; in vivo
  dose-limiting toxicity: acute CNS toxicity manifested as sedation and somnolence
[3]; patients with relapsed acute leukemia or other hematologic malignancy, once daily high-dose 5-day dosing schedule
  MTD: 135 mg/m^2/day
[4]; [15]
  % Weight Change: +4%
  CR: 1/6
  Net Log10 Kill: −1.2
  PR: 0/6
  T − C: 2.4 days
  Toxic Deaths: 0/6
[4]; [16]
  % Weight Change: +10%
  CR: 0/6
  Net Log10 Kill: −1.4
  PR: 0/6
  T − C: 0.4 days
  Toxic Deaths: 0/6
[4]; [17]
  % Weight Change: +1%
  CR: 0/6
  Net Log10 Kill: −1.3
  PR: 0/6
  T − C: 1.6 days
  Toxic Deaths: 0/6
[4]; [18]
  % Weight Change: −9%
  CR: 3/6
  Net Log10 Kill: −0.8
  PR: 0/6
  T − C: 7.8 days
  Toxic Deaths: 0/6
[4]; [19]
  % Weight Change: +9%
  CR: 0/10
  Net Log10 Kill: 0
  PR: 0/10
  T − C: -1.4 days
  Toxic Deaths: 0/10
[4]; [20]
  % Weight Change: +11%
  CR: 0/10
  Net Log10 Kill: 0
  PR: 0/10
  T − C: -1.9 days
  Toxic Deaths: 0/10
[4]; [21]
  % Weight Change: +11%
  CR: 0/10
  Net Log10 Kill: −0.8
  PR: 0/10
  T − C: 4.3 days
  Toxic Deaths: 0/10
[4]; [22]
  % Weight Change: +11%
  Net Log10 Kill: −0.5
  PR: 0/10
  T − C: 8.7 days
  Toxic Deaths: 0/10
[4]; Table 2 study, CI-994 60 mg/kg/day alone, days 11-15, 18-22, 25-29, 60 mg/kg/day
  CR: two complete responses out of 10 and 2/10
[4]; oral 30 mg/kg, Days 10-14, 17-21, 24-28
  day on which significant tumor growth commenced (FIG. 1): ~24 days
[4]; oral 45 mg/kg, Days 10-14, 17-21, 24-28
  day on which significant tumor growth commenced (FIG. 1): ~24 days
[4]; oral 60 mg/kg, Days 10-14, 17-21, 24-28
  tumor growth delayed for (FIG. 1): 33 days
clinical
  half-life: ~15 h
[5]
  radiolabeled drug appearing in the urine: 80%
[6]
  cumulative toxicity: no evidence of cumulative toxicity
  dose-limiting toxicity: thrombocytopenia or neutropenia
[6]; po
  maximum plasma concentrations with increasing dose levels: less than dose-proportional
  terminal elimination half-life and apparent clearance rate vs dose: independent of the dose administered
  time to maximum blood level after ingestion: 1 to 2 h

## N.N.[Cl][Pt][Cl] [Cisplatin, cis-diaminodichloroplatinum, reference compound]
[4]; [23]
  % Weight Change: +13%
  CR: 0/10
  Net Log10 Kill: −0.1
  PR: 0/10
  T − C: 2.6 days
[4]; [24]
  % Weight Change: +12%
  CR: 0/10
  Net Log10 Kill: −0.1
  PR: 0/10
  T − C: 2.4 days
[4]; cisplatin alone at 2 mg/kg/day
  T-C: 2.4
  complete responses: failed to cause any complete responses

## Nc1ccn([C@@H]2O[C@H](CO)[C@@H](O)C2(F)F)c(=O)n1 [Gemcitabine, 2′-deoxy-2′,2′-difluoro-cytidine, reference compound]
[4]; 40 mg/kg IP on Days 10, 13, 16, 19
  tumor growth substantially inhibited for (FIG. 2): 25 days
[4]; 80 mg/kg IP on Days 10, 13, 16, 19
  tumor growth substantially inhibited for (FIG. 2): about 32 days
[4]; [25]
  % Weight Change: +1%
  CR: 1/6
  Net Log10 Kill: 0.5
  PR: 0/6
  T − C: 15.4 days
  Toxic Deaths: 0/6
[4]; [26]
  % Weight Change: −3%
  CR: 0/6
  Net Log10 Kill: 1.2
  PR: 1/6
  T − C: 24.0 days
  Toxic Deaths: 0/6

## CCCCCOC(=O)Nc1nc(=O)n([C@@H]2O[C@H](C)[C@@H](O)[C@H]2O)cc1F [Xeloda, 5′-deoxy-5-fluoro-N-[(pentyloxy)carbonyl]-cytidine, reference compound]
C26 colon tumor; [27]
  % Tumor free: 2/10
  Net Log10 Kill: 0.2
  T − C: 13.8 days
  Toxic Deaths: 0/10
C26 colon tumor; [28]
  % Tumor free: 3/10
  Net Log10 Kill: 0.8
  T − C: 20.7 days
  Toxic Deaths: 1/10
C26 colon tumor; Table 3 study, Xeloda 750 mg/kg/day alone, days 3-7, 10-14, listed as capecitabine
  % Tumor free: 3 out of 10
C26 colon tumor; [29]
  % Tumor free: 0/10
  Net Log10 Kill: 0.6
  T − C: 15.2 days
  Toxic Deaths: 0/10
C26 colon tumor; [30]
  % Tumor free: 1/10
  Net Log10 Kill: 1.3
  T − C: 20.4 days
  Toxic Deaths: 0/10
